The values below come from US20230312605A1, “PYRROLO[2,1-F][1,2,4]TRIAZINES AND PREPARATION AND USES THEREOF” (BioSplice Therapeutics, Inc., priority 2021, published 2023).

The target of test [1] is recombinant DYRK1A kinase (Homo sapiens (Human), UniProt Q13627). The test is described as follows: DYRK1A kinase assay (Ser/Thr 18 peptide Z-lyte FRET assay). Conditions: recombinant DYRK1A 0.25 µg/mL, ATP 15 µM, Ser/Thr peptide 18 4 µM, one hour at room temperature; table head prints EC50, method says IC50. In kind it is biochemical. The gist of the method: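 Z-lyte FRET format: 1 h room-temperature reaction of 15 µM ATP, 4 µM Ser/Thr 18 peptide and 0.25 µg/mL recombinant human DYRK1A, in duplicate over 11 compound concentrations up to 10 µM. IC50 was derived by non-linear regression of percent phosphorylation calculated from coumarin/fluorescein emission ratios.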

For test [2], the system named is Tau phosphorylation at Thr212 (pThr212) in HEK293T cells transfected with DYRK1A and MAPT. The test is described as follows: phosphoTau (Thr212) AlphaLISA tau phosphorylation cell assay. In kind it is cell-based. The note with it: HEK-293T, HEK293T cells transiently transfected with human DYRK1A and MAPT, compound treatment 18-24 hours, read-out: pTau (Thr212) EC50. The procedure: Representative compounds were screened using the assay procedure for tau phosphorylation activity described below.
HEK293T cells (ATCC, CRL3216) cultured in DMEM (Thermo Fisher Scientific, 10566024) supplemented with 10% FBS (Corning, 35-011-CV) and Penicillin/Streptomycin (Thermo Fisher Scientific, 15140163) were seeded in a 75 cm^2 flask at 8.1 × 10^6 cells/flask. The HEK293T cells were then transiently transfected with 5 µg DYRK1A (NM_001396) human untagged clone (OriGene, SC314641) and 2.5 µg MAPT (441 a.a. Tau gene) (NM_005910) human untagged clone (OriGene, TP313312) using Lipofectamine 3000 (Thermo Fisher Scientific, L30000015) and incubated for 20-30 hours in a humidified incubator at 37° C. and 5% CO^2. Post-incubation, HEK293T cells transfected with the DYRK1A and MAPT expression vectors were harvested and seeded in BioCoat poly-D lysine coated 96-well plates (Corning, 354461) at 3 × 10^4 cells/well.
The above synthesized compounds were screened using the cell assay procedure to assess decreased Tau phosphorylation at Thr212 (pThr212) described below.
Each compound was dissolved in DMSO (Sigma-Aldrich, D8418-100 mL) as a 10 mM stock. 10 mM stocks were serially diluted 1:3, 10-point dose-response curve and added to the cells with a final concentration ranging from 20 µM to 1.1 nM. Cells were treated with compounds in duplicate and incubated for 18-24 hours in a humidified incubator at 37° C. and 5% CO^2.
Following the overnight compound treatment, cells were lysed with 1X Alpha Surefire Ultra Lysis Buffer (Perkin Elmer, ALSU-LB-100ML) complemented with 1X Halt Phosphatase Inhibitor Cocktail (Thermo Fisher Scientific, 78427) and 1X Halt Protease Inhibitor Cocktail (Thermo Fisher Scientific, 78438). Lysates were spun down at 12,000 g for 10 min to remove any cellular debris and 5 µL of lysates were dispensed into a 384-well Opti-Plate (Perkin Elmer, 6007290) for the measurement of Tau phosphorylation in the phosphoTau (Thr212) AlphaLISA assay. Donor antibody, biotinylated HT7Tau (Thermo Fisher Scientific, MN1000B), and acceptor antibody, pThr212Tau (Thermo Fisher Scientific, 44740G) were both added to the cell lysates at a final concentration of 3 nM and incubated for 1 hour at room temperature. Following incubation of the lysates with the donor and acceptor antibodies, anti-rabbit IgG(Fc specific) AlphaLISA acceptor beads (Perkin Elmer, AL104C) were added at a 10 ug/mL final concentration and incubated for 1 hour at room temperature protected from light. Lastly, AlphaScreen streptavidin donor beads (PerkinElmer, 6760002) were added at 40 ug/mL final concentration and incubated for 1 hour at room temperature protected from light. Plates were read at Ex= […], and Em=615 nm on the EnVision Multilabel Plate Reader (Perkin Elmer)
phospho-Tau (Thr212) AlphaLISA signal was used to plot, draw the curve fitting, and determine each compound’s EC50 in Prism (GraphPad).
On the technique in general: In Alpha technology, singlet oxygen from a donor bead excites a nearby acceptor bead.

Usually EC50 stands for the concentration giving half of the maximal effect.

As to `O[C@H]1C[C@@H](Nc2ncc3c(-c4ccc5nccnc5c4)ccn3n2)C1` [Compound 1724, cis-3-((5-(Quinoxalin-6-yl)pyrrolo [2,1-f] [1,2,4]triazin-2-yl)amino) cyclobutan-1-ol], the EC50 in test [1] was 11 nM; in test [2], 305 nM.
The corresponding values for `Cc1nc2ccc(-c3ccn4nc(NCC(C)(C)F)ncc34)nc2n1C(C)C` [Compound 1801, N-(2-Fluoro-2-methylpropyl)-5-(3-isopropyl-2-methyl-3H-imidazo[4,5-b]pyridin-5-yl)pyrrolo [2,1-f][1,2,4]triazin-2-amine] are 5 nM and 152 nM.
